Results published in ChEMBL document CHEMBL1122402, “Antidiabetic activity of some 1-substituted 3,5-dimethylpyrazoles” (1983).

Species on record: Mus musculus
Assay: Hypoglycemic activity in alloxan-diabetic female albino mice expressed as percentage reduction of plasma glucose levels
Format: functional
Set-up: concentration or dose not given beside the values

Row | Structure (SMILES) | Reduction [%]
1 | CCNC(=O)NS(=O)(=O)c1ccc(C(=O)n2nc(C)cc2C)cc1 | <1
2 | Cc1nn(C(=O)c2ccc(NC(=O)NC3CCCCC3)cc2)c(C)c1Br | 2.5
3 | Cc1cc(C)n(C(=O)n2nc(C)cc2C)n1 | 2.5
4 | Cc1cc(C)n(C(=O)c2ccc(S(=O)(=O)NC(=O)Nc3ccccc3)cc2)n1 | 2
5 | Cc1cc(C)n(CC(=O)NNC(=O)NC2CCCCC2)n1 | 2.5
6 | Cc1nn(-c2ccc(S(=O)(=O)NC(=O)NC3CCCCC3)cc2)c(C)c1Br | 2.5
7 | Cc1nn(C(=O)Nc2ccc(S(=O)(=O)NC(=O)NC3CCCCC3)cc2)c(C)c1Br | 4
8 | Cc1cc(C)n(C(=O)c2ccccc2O)n1 | <1
9 | CCCCNC(=O)NS(=O)(=O)c1ccc(-n2nc(C)c(Br)c2C)cc1 | 3
10 | Cc1cc(C)n(CC(=O)n2nc(C)cc2C)n1 | 2.5
11 | CCCNC(=O)Nc1ccc(C(=O)n2nc(C)c(Br)c2C)cc1 | 5
12 | Cc1nn(C(=O)c2ccc(S(=O)(=O)NC(=O)Nc3ccccc3)cc2)c(C)c1Br | 3
13 | CCCCNC(=O)Nc1ccc(C(=O)n2nc(C)c(Br)c2C)cc1 | 6
14 | CCNC(=O)NS(=O)(=O)c1ccc(NC(=O)n2nc(C)c(Br)c2C)cc1 | <1
15 | CCNC(=O)NS(=O)(=O)c1ccc(C(=O)n2nc(C)c(Br)c2C)cc1 | 1
16 | Cc1cc(C)n(C(=O)c2ccncc2)n1 | <1
17 | Cc1cc(C)n(C(=O)c2ccc(S(=O)(=O)NC(=O)NC3CCCCC3)cc2)n1 | <1
18 | Cc1cc(C)n(C(=O)Nc2ccc(S(=O)(=O)NC(=O)NC3CCCCC3)cc2)n1 | 9
19 | Cc1cc(C)n(C(=O)Nc2ccc(S(=O)(=O)NC(=O)NCc3ccccc3)cc2)n1 | 1
20 | Cc1nn(C(=O)c2ccc(S(=O)(=O)NC(=O)NC3CCCCC3)cc2)c(C)c1Br | 1
21 | CCCNC(=O)NS(=O)(=O)c1ccc(-n2nc(C)c(Br)c2C)cc1 | 2
22 | Cc1cc(C)n(CC(=O)NNC(=O)NCc2ccccc2)n1 | <1

Row | Structure (SMILES) | Reduction [%]
23 | CCCNC(=O)NS(=O)(=O)c1ccc(C(=O)n2nc(C)cc2C)cc1 | <1
24 | CCCNC(=O)NS(=O)(=O)c1ccc(NC(=O)n2nc(C)c(Br)c2C)cc1 | 1
25 | Cc1cc(C)n(C(=O)c2cccnc2)n1 | <1
26 | CCCNC(=O)NS(=O)(=O)c1ccc(NC(=O)n2nc(C)cc2C)cc1 | 6
27 | Cc1nn(C(=O)c2ccc(S(=O)(=O)NC(=O)NCc3ccccc3)cc2)c(C)c1Br | 2
28 | CCCCNC(=O)NS(=O)(=O)c1ccc(NC(=O)n2nc(C)cc2C)cc1 | 7.5
29 | CCCNC(=O)Nc1ccc(C(=O)n2nc(C)cc2C)cc1 | 8
30 | Cc1cc(C)n(C(=O)c2ccc(S(=O)(=O)NC(=O)NCc3ccccc3)cc2)n1 | <1
31 | CCNC(=O)NS(=O)(=O)c1ccc(-n2nc(C)c(Br)c2C)cc1 | <1
32 | Cc1cc(C)n(C(=O)c2ccc(NC(=O)NC3CCCCC3)cc2)n1 | 20
33 | Cc1cc(C)n(C(=O)Nc2ccc(S(=O)(=O)NC(=O)Nc3ccccc3)cc2)n1 | 2
34 | CCCCNC(=O)Nc1ccc(C(=O)n2nc(C)cc2C)cc1 | 15
35 | Cc1nn(C(=O)c2ccc(NC(=O)Nc3ccccc3)cc2)c(C)c1Br | <1
36 | CCCCNC(=O)NS(=O)(=O)c1ccc(C(=O)n2nc(C)cc2C)cc1 | 2
37 | CCCNC(=O)NNC(=O)Cn1nc(C)cc1C | 1
38 | CCCCNC(=O)NS(=O)(=O)c1ccc(NC(=O)n2nc(C)c(Br)c2C)cc1 | 2
39 | CCCCNC(=O)NNC(=O)Cn1nc(C)cc1C | 2
40 | CCNC(=O)NNC(=O)Cn1nc(C)cc1C | 1
41 | Cc1cc(C)n(C(=O)c2ccc(NC(=O)Nc3ccccc3)cc2)n1 | 6
42 | CCNC(=O)NS(=O)(=O)c1ccc(NC(=O)n2nc(C)cc2C)cc1 | 4
43 | Cc1nn(-c2ccc(S(=O)(=O)NC(=O)Nc3ccccc3)cc2)c(C)c1Br | <1
